Source: US20240108611A1, “COMPOSITION FOR PREVENTING OR TREATING METABOLIC DISEASES, CONTAINING TORSEMIDE AND CROMOLYN” (ONCOCROSS CO., LTD., priority 2021, published 2024)

Key:
[1] = test system: nonalcoholic steatohepatitis (NASH) animal model; test: Body weight change in nonalcoholic steatohepatitis (NASH) animal model, high fat diet; format: in vivo, ICR mice; conditions: high-fat diet mice; 10 mg/kg each drug i.p. three times a week for 6 weeks
NASH animal model = test: Triglycerides in liver tissue by Oil Red O staining in NASH animal model; conditions: HFD mice after 13 weeks of diet and drug administration

O=C(O)c1cc(=O)c2c(OCC(O)COc3cccc4oc(C(=O)O)cc(=O)c34)cccc2o1 [cromolyn]
change in body weight compared to high-fat diet control group (HFD PBS) [1]: no significant change
triglycerides in liver tissue (Oil Red O staining) versus HFD PBS group (NASH animal model): relatively decreased
